Measurements from ChEMBL document CHEMBL3046623, “A search of novel antimicrobial based on benzimidazole and 2-pyridone heterocycles” (2012).
≈ marks a conversion by molar mass, not a printed value.

Experiments:
Assay type in all cases: functional
Aspergillus clavatus = test: Antifungal activity against Aspergillus clavatus MTCC 1323 after 72 hr; conditions: MTCC 1323, 72 h
Aspergillus niger = test: Antifungal activity against Aspergillus niger MTCC 282 after 72 hr; conditions: MTCC 282, 72 h
Candida albicans = test: Antifungal activity against Candida albicans MTCC 227 after 72 hr; conditions: MTCC 227, 72 h
Streptococcus pyogenes = test: Antibacterial activity against Streptococcus pyogenes MTCC 442 after 24 to 48 hr by serial dilution method
Staphylococcus aureus = test: Antibacterial activity against Staphylococcus aureus MTCC 96 after 24 to 48 hr by serial dilution method
Pseudomonas aeruginosa = test: Antibacterial activity against Pseudomonas aeruginosa MTCC 1688 after 24 to 48 hr by serial dilution method
Escherichia coli = test: Antibacterial activity against Escherichia coli MTCC 443 after 24 to 48 hr by serial dilution method

| Compound | MIC99 (Aspergillus clavatus) [µg/mL] | MIC99 (Aspergillus niger) [µg/mL] | MIC99 (Candida albicans) [µg/mL] | MIC99 (Streptococcus pyogenes) [µg/mL] | MIC99 (Staphylococcus aureus) [µg/mL] | MIC99 (Pseudomonas aeruginosa) [µg/mL] | MIC99 (Escherichia coli) [µg/mL] |
| --- | --- | --- | --- | --- | --- | --- | --- |
| C/C(=N\n1c(/N=C/c2cccc([N+](=O)[O-])c2)c(C#N)c(-c2ccccc2O)c(C#N)c1=O)c1nc2ccccc2[nH]1 | 1000 (≈ 1840 µM) | 1000 (≈ 1840 µM) | 500 (≈ 922 µM) | 200 (≈ 369 µM) | 200 (≈ 369 µM) | 500 (≈ 922 µM) | 500 (≈ 922 µM) |
| C/C(=N\n1c(/N=C/c2ccc([N+](=O)[O-])cc2)c(C#N)c(-c2ccccc2O)c(C#N)c1=O)c1nc2ccccc2[nH]1 | 1000 (≈ 1840 µM) | 1000 (≈ 1840 µM) | 500 (≈ 922 µM) | 250 (≈ 461 µM) | 250 (≈ 461 µM) | 250 (≈ 461 µM) | 250 (≈ 461 µM) |
| C/C(=N\n1c(/N=C/c2ccccc2Cl)c(C#N)c(-c2ccccc2O)c(C#N)c1=O)c1nc2ccccc2[nH]1 | 1000 (≈ 1880 µM) | 100 (≈ 188 µM) | 1000 (≈ 1880 µM) | 250 (≈ 470 µM) | 100 (≈ 188 µM) | 25 (≈ 47 µM) | 250 (≈ 470 µM) |
| C/C(=N\n1c(/N=C/c2ccc(N(C)C)cc2)c(C#N)c(-c2ccccc2O)c(C#N)c1=O)c1nc2ccccc2[nH]1 | 500 (≈ 925 µM) | 500 (≈ 925 µM) | 200 (≈ 370 µM) | 100 (≈ 185 µM) | 100 (≈ 185 µM) | 100 (≈ 185 µM) | 62.5 (≈ 116 µM) |
| C/C(=N\n1c(/N=C/c2ccccc2)c(C#N)c(-c2ccccc2O)c(C#N)c1=O)c1nc2ccccc2[nH]1 | 200 (≈ 402 µM) | 100 (≈ 201 µM) | 200 (≈ 402 µM) | 100 (≈ 201 µM) | 250 (≈ 502 µM) | 50 (≈ 100 µM) | 100 (≈ 201 µM) |
| C/C(=N\n1c(/N=C/c2ccccc2O)c(C#N)c(-c2ccccc2O)c(C#N)c1=O)c1nc2ccccc2[nH]1 | 1000 (≈ 1950 µM) | 1000 (≈ 1950 µM) | 500 (≈ 974 µM) | 200 (≈ 389 µM) | 200 (≈ 389 µM) | 150 (≈ 292 µM) | 150 (≈ 292 µM) |
| CC1(C)S[C@@H]2[C@H](NC(=O)[C@H](N)c3ccccc3)C(=O)N2[C@H]1C(=O)O [AMPICILLIN] |  |  |  | 100 (≈ 286 µM) | 250 (≈ 715 µM) | 100 (≈ 286 µM) | 100 (≈ 286 µM) |
| COC1=CC(=O)C[C@@H](C)[C@]12Oc1c(Cl)c(OC)cc(OC)c1C2=O [GRISEOFULVIN] | 100 (≈ 283 µM) | 100 (≈ 283 µM) | 500 (≈ 1420 µM) |  |  |  |  |

Second part, the molecule after the results:

| MIC99 (Aspergillus clavatus) [µg/mL] | MIC99 (Aspergillus niger) [µg/mL] | MIC99 (Candida albicans) [µg/mL] | MIC99 (Streptococcus pyogenes) [µg/mL] | MIC99 (Staphylococcus aureus) [µg/mL] | MIC99 (Pseudomonas aeruginosa) [µg/mL] | MIC99 (Escherichia coli) [µg/mL] | Compound |
| --- | --- | --- | --- | --- | --- | --- | --- |
| 1000 (≈ 1880 µM) | 1000 (≈ 1880 µM) | 500 (≈ 940 µM) | 250 (≈ 470 µM) | 100 (≈ 188 µM) | 250 (≈ 470 µM) | 100 (≈ 188 µM) | C/C(=N\n1c(/N=C/c2ccc(Cl)cc2)c(C#N)c(-c2ccccc2O)c(C#N)c1=O)c1nc2ccccc2[nH]1 |
| 1000 (≈ 1840 µM) | 1000 (≈ 1840 µM) | 1000 (≈ 1840 µM) | 250 (≈ 460 µM) | 250 (≈ 460 µM) | 100 (≈ 184 µM) | 200 (≈ 368 µM) | COc1cc(/C=N/c2c(C#N)c(-c3ccccc3O)c(C#N)c(=O)n2/N=C(\C)c2nc3ccccc3[nH]2)ccc1O |
| 100 (≈ 170 µM) | 1000 (≈ 1700 µM) | 1000 (≈ 1700 µM) | 500 (≈ 851 µM) | 250 (≈ 425 µM) | 250 (≈ 425 µM) | 200 (≈ 340 µM) | COc1cc(/C=N/c2c(C#N)c(-c3ccccc3O)c(C#N)c(=O)n2/N=C(\C)c2nc3ccccc3[nH]2)cc(OC)c1OC |
| 1000 (≈ 1950 µM) | 1000 (≈ 1950 µM) | 500 (≈ 974 µM) | 500 (≈ 974 µM) | 200 (≈ 389 µM) | 250 (≈ 487 µM) | 250 (≈ 487 µM) | C/C(=N\n1c(/N=C/c2cccc(O)c2)c(C#N)c(-c2ccccc2O)c(C#N)c1=O)c1nc2ccccc2[nH]1 |
| 100 (≈ 195 µM) | 1000 (≈ 1950 µM) | 500 (≈ 974 µM) | 50 (≈ 97.4 µM) | 250 (≈ 487 µM) | 150 (≈ 292 µM) | 150 (≈ 292 µM) | C/C(=N\n1c(/N=C/c2ccc(O)cc2)c(C#N)c(-c2ccccc2O)c(C#N)c1=O)c1nc2ccccc2[nH]1 |
